The subject of this experiment is PTP1B. Briefly: PTP1B-catalyzed hydrolysis of pNPP in the presence of inhibitors. It is filed as biochemical. The settings on record: IC50 at 20 mM pNPP.

Here are results for one compound from paper PMC6219988 (Biochemistry, 2018).

SMILES strings stand for the structures.

Take `CC(C)C1C=C2CCC3C(C)(C(=O)O)CCCC3(C)C2CC1` (single isomer, unassigned; diaa) [DiAA, dihydroabietic acid]: the “potency (IC50) relative to AA” value (ratio vs AA) was determined as 3 fold. For the same compound, the “potency (IC50) relative to DeAA” value (ratio vs DeAA) is 7 fold.
